The text below walks through data of PubChem BioAssay (NCI).

Test systems include HT29 colon; SF-539 CNS; HL-60(TB) leukemia; SF-295 CNS; LOX IMVI melanoma; OVCAR-3 ovarian; SK-MEL-5 melanoma; SF-268 CNS; ACHN renal; CAKI-1 renal.
Holding throughout (assay): NCI tumour cell line growth inhibition, 48 h

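Growth conditions: 96-well plates. Treatment: test compound, 48 hours, 5 concentrations. Analysis: linear interpolation between bracketing concentrations; unreached endpoints set to highest concentration. GI50 marks 50% less growth. At the TGI there is no net growth.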 Some results are limits rather than exact numbers.

For the compound `C=C1C(=O)O[C@H]2[C@H]1CC/C(COC(=O)/C=C/c1cccnc1)=C\CC[C@@]1(C)O[C@@H]21`, the GI50 was 2.23 µM in the assay with HT29 colon; 1.5 µM with SF-539 CNS; 0.741 µM with HL-60(TB) leukemia; 10.6 µM with SF-295 CNS; 1.55 µM with LOX IMVI melanoma; 0.494 µM in the assay with OVCAR-3 ovarian. The GI50 in the assay with SK-MEL-5 melanoma was 3.37 µM; in the assay on SF-268 CNS it was 4.63 µM. Also, the TGI worked out at 6.03 µM in the assay with HT29 colon; 2.97 µM in the assay with SF-539 CNS; 3.7 µM in the assay with HL-60(TB) leukemia; 23.1 µM in the assay on SF-295 CNS; 2.93 µM in the assay with LOX IMVI melanoma; 1.76 µM in the assay on OVCAR-3 ovarian. Besides, the TGI is 12.6 µM in the assay on SK-MEL-5 melanoma and 18.4 µM with SF-268 CNS.
For `CCCOP1(=O)C=C(C)C(Cl)=C(C)C1` (stereo not given), the TGI with HT29 colon was 49.3 µM; in the assay on SF-539 CNS, 63.8 µM; in the assay with ACHN renal, 52.5 µM; in the assay on HL-60(TB) leukemia it was 81.6 µM; in the assay with SF-295 CNS, above 100 µM; with LOX IMVI melanoma it was 36.1 µM. In addition, the TGI in the assay on OVCAR-3 ovarian was 70.3 µM; in the assay on SK-MEL-5 melanoma, 55.3 µM; with SF-268 CNS, 45.2 µM.
Consider `N#Cc1c2ccccc2c2nnc3cc(C(F)(F)F)ccc3n12`, for which the GI50 is 58 µM with HT29 colon; 25.7 µM in the assay on ACHN renal; 38.6 µM with CAKI-1 renal; 58.6 µM with HL-60(TB) leukemia; 96.3 µM in the assay on SF-295 CNS; 21.7 µM in the assay with LOX IMVI melanoma. In addition, the GI50 is 79.9 µM in the assay with OVCAR-3 ovarian and 19.2 µM in the assay with SF-268 CNS. The TGI with HT29 colon is above 100 µM; in the assay on ACHN renal it was above 100 µM; with CAKI-1 renal it was above 100 µM; with HL-60(TB) leukemia, above 100 µM; in the assay on SF-295 CNS, above 100 µM; in the assay on LOX IMVI melanoma, 62.9 µM. Also, the TGI in the assay with OVCAR-3 ovarian and with SF-268 CNS was above 100 µM in each case.
In the case of `COCC1N=C(c2ccc(OC)c(OCc3ccccc3)c2OC)O[C@H]1c1ccccc1` (stereo not given in full), the TGI in the assay with HT29 colon was 59.7 µM; with SF-539 CNS it was 35.8 µM; in the assay with ACHN renal, 52.4 µM; with HL-60(TB) leukemia, 40.4 µM; in the assay with SF-295 CNS, 93.8 µM; in the assay on LOX IMVI melanoma it was 29.6 µM. Besides, the TGI was 55 µM with OVCAR-3 ovarian, 25.7 µM in the assay on SK-MEL-5 melanoma and above 100 µM with SF-268 CNS.
As for `N#C[C@]12CC3(CC[C@H]1CC1(C2)OCCO1)OCCO3`, the TGI with SF-539 CNS, in the assay on ACHN renal, in the assay with CAKI-1 renal, in the assay on HL-60(TB) leukemia, with OVCAR-3 ovarian and with SK-MEL-5 melanoma was above 100 µM each time. In the assay on SF-268 CNS, this compound had a TGI above 100 µM.
Turning to `CCC12CCC(O)C1N(C)CCC2Sc1ccccc1` (stereo not given), the TGI in the assay with HT29 colon was above 100 µM; with SF-539 CNS, above 100 µM; in the assay on ACHN renal it was above 100 µM; in the assay on HL-60(TB) leukemia it was 56.5 µM; in the assay with SF-295 CNS, above 100 µM; in the assay on LOX IMVI melanoma, above 100 µM. Besides, the TGI in the assay on OVCAR-3 ovarian, with SK-MEL-5 melanoma and in the assay with SF-268 CNS was above 100 µM each time.
For `O=C(O)C(Cc1ccccc1-c1ccccc1)C(=O)O`, the TGI with HT29 colon, in the assay with SF-539 CNS, in the assay on ACHN renal, in the assay with CAKI-1 renal, in the assay with SF-295 CNS and in the assay on LOX IMVI melanoma was above 100 µM each time. Besides, the TGI in the assay on OVCAR-3 ovarian, in the assay on SK-MEL-5 melanoma and in the assay with SF-268 CNS was above 100 µM throughout.
Take `CN(C)CCCNC(=O)c1cc(NC(=O)c2cc(NC(=O)CCCN3c4ccccc4C=Cc4ccccc43)cn2C)cn1C`: the GI50 is 3.59 µM in the assay with HT29 colon; 5.57 µM in the assay on SF-539 CNS; 14.7 µM with ACHN renal; 18.5 µM with CAKI-1 renal; 14.3 µM in the assay with HL-60(TB) leukemia; 2.07 µM in the assay on SF-295 CNS. Moreover, the GI50 in the assay on OVCAR-3 ovarian was 13.4 µM; with SF-268 CNS, 5.06 µM. The TGI in the assay on HT29 colon was above 100 µM; in the assay with SF-539 CNS, 33.5 µM; in the assay on ACHN renal, 33.6 µM; in the assay on CAKI-1 renal it was 43.9 µM; in the assay with HL-60(TB) leukemia it was 41.4 µM; with SF-295 CNS, 5.38 µM. In addition, the TGI with OVCAR-3 ovarian is 54.2 µM; in the assay on SF-268 CNS, above 100 µM.
In the case of `C=CC[P@@]1(=O)O[C@H](c2ccccc2)C(C)N1C(C)C` (stereo not given in full), the TGI in the assay on HT29 colon, in the assay on SF-539 CNS, in the assay with ACHN renal, with HL-60(TB) leukemia, in the assay on SF-295 CNS and in the assay on LOX IMVI melanoma was above 100 µM throughout. The TGI with OVCAR-3 ovarian, in the assay with SK-MEL-5 melanoma and with SF-268 CNS was above 100 µM each time.
As for `COc1ccc(/C=C/C(=O)/C=C(/C=C/c2ccc(OC)c(OC)c2)OB(F)F)cc1OC`, the GI50 in the assay on HT29 colon was 1.03 µM; with SF-539 CNS, 1.18 µM; in the assay on ACHN renal it was 0.352 µM; in the assay on HL-60(TB) leukemia, 0.495 µM; in the assay on SF-295 CNS it was 1.89 µM; in the assay on LOX IMVI melanoma it was 0.808 µM. Besides, the GI50 with OVCAR-3 ovarian is 0.324 µM; with SK-MEL-5 melanoma it was 1.49 µM; in the assay with SF-268 CNS, 2.42 µM. The TGI worked out at 4.95 µM in the assay with HT29 colon; 3.63 µM in the assay with SF-539 CNS; 1.98 µM in the assay with ACHN renal; 3.64 µM in the assay with HL-60(TB) leukemia; 4.87 µM in the assay with SF-295 CNS; 2.19 µM in the assay on LOX IMVI melanoma. Moreover, the TGI in the assay with OVCAR-3 ovarian is 1.04 µM; in the assay on SK-MEL-5 melanoma it was 3.23 µM; in the assay on SF-268 CNS, above 100 µM.
On to `O=C1C(c2ccc(Cl)cc2)=[N+]([O-])c2ccccc21`, for which the TGI with HT29 colon is 43.6 µM; in the assay with SF-539 CNS, 36 µM; in the assay with ACHN renal, 28.5 µM; in the assay on HL-60(TB) leukemia, 24 µM; in the assay on SF-295 CNS, 42.2 µM; with LOX IMVI melanoma it was 27.7 µM. For the same compound, the TGI was found to be 26.8 µM with OVCAR-3 ovarian, 26.6 µM in the assay with SK-MEL-5 melanoma and 28.8 µM in the assay on SF-268 CNS.
Regarding `O=C(c1ccccc1)c1ccc2cccc(O)c2n1`, the TGI is above 100 µM in the assay on SF-539 CNS; above 100 µM in the assay on ACHN renal; above 100 µM in the assay on CAKI-1 renal; 52.7 µM in the assay on SF-295 CNS; 28 µM in the assay with LOX IMVI melanoma; above 100 µM in the assay on OVCAR-3 ovarian. The TGI in the assay on SK-MEL-5 melanoma is 75.8 µM; in the assay on SF-268 CNS, above 100 µM.
